# Source: patent publication US20090221543A1, “NEW CORTICOSTEROIDS” (NICOX S A., priority 2002, published 2009)
# Like-named read-outs stand apart in the source and are kept apart here.
# Experiments:
# primary rat osteoclastes [1] = details: 18 h, 1 nM
# glucocorticoid receptor = molecular target: T1, glucocorticoid receptor (Homo sapiens, UniProt P04150); experiment: GR binding assay: displacement of 3H-dexamethasone from glucocorticoid binding sites in human monocytes; details: 3H-dexamethasone 50 nM, 37° C., 1 hour
# T1 construct: The monocytes have been isolated from human blood by a method based on a density gradient; endogenous in cells; host or cells: primary human blood monocytes (Ficoll-Hypaque isolated), intact cells
# T1 sequence (P04150 1-777): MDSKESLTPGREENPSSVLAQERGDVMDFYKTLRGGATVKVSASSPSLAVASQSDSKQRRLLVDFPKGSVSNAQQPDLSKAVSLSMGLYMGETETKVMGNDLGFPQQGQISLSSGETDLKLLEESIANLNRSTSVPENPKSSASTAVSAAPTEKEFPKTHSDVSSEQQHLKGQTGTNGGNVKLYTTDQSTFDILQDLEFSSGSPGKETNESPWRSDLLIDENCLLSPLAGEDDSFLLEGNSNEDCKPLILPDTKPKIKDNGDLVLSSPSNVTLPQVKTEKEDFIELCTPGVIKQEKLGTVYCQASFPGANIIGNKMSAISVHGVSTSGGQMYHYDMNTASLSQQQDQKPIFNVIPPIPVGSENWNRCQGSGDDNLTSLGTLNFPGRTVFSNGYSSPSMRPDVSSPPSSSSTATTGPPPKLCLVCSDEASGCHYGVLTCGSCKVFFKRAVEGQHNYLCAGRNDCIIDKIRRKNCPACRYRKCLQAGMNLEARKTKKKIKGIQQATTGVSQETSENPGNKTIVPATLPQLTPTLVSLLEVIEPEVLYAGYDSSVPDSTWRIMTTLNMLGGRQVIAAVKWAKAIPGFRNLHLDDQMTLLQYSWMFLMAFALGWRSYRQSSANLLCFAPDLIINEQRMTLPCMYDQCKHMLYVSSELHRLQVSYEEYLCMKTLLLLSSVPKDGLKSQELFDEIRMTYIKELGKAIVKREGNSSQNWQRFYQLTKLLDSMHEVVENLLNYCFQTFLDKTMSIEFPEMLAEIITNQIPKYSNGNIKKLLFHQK
# Description: In these experiments human monocytes having on their surface receptors for glucocorticoids have been used.
# In this experiment the capability of the tested substances to displace ^3H-dexamethasone from the bond sites for the glucorticoids present in human monocytes has been evaluated.
# The test tube content has been mixed using a Vortex equipment. The test tubes have then been incubated at 37° C. for 1 hour.
# After incubation, the cells have been washed 4 times with a saline solution in phosphate buffer cooled in ice bath (PBS, 0.01 M) and the amount of [^3H]-dexamethasone bound to the cells has been determined by liquid scintigraphy. For each sample the concentration of [^3H]-dexamethasone bound to the cells (femtomoles (fmoles)/ml 10^−15 moles/ml) has been calculated by substracting from the measured values the non specific bond value, and then multiplying by the ratio molarity/radioactivity.
# The data reported in the Tables are expressed in fmole [^3H]-dexamethasone/ml.
# [2] = system: spinal lesions from trauma; experiment: Recovery of motor functions after spinal lesions from trauma in rats (BBB score); details: 20 mg/kg s.c. once a day for 5 days
# [3] = system: arthritis caused by collagen; experiment: Anti-arthritic activity in collagen-induced arthritis in rats; type: in vivo, Lewis rats; details: 4 :moles/kg i.p.; for Hind Legs Articulations Sizes: day 12 to 18, measured on day 18, control 7.03, naive 5.9; for histological analysis of the articulations: day 18; for Leg Average Volume: plethysmometer, control 1.5, naive 1.1; for Hip Functionality Evaluation (Score): score 0 (absence of inflammation) to 3 (serious inflammation), control 1.6; for Hind Legs Articulations Reduction %: with respect to the control group treated only with collagen suspension
# Description: Lewis female rats weighing 150-200 g fed by a standard diet and with free access to water have been stabulated with cycles of 12 hours light/dark.
# To carry out the experiment, the rats were anaesthetized with halothane (day zero), then at the base of the tail, by intradermal injection, a collagen suspension II/Freund's incomplete adjuvant (400: g/rat) was injected, prepared as described hereinafter: nasal bovine collagen of type II (Sigma-Aldrich, 4 mg/ml) has been dissolved in acetic acid (0.01 M) and emulsified with a same volume of cold Freund's incomplete adjuvant (Sigma-Aldrich).
# The arthritic pathology became evident between the 11th and the 13th day, with a maximum inflammation at the 18th day in untreated rats.
# From the 12th to the 18th day subsequent to the injection, the rats, divided in 3 groups of 10 animals each, have been treated i.p. according to the following protocol:
# A fourth group of healthy rats (naive) has been taken as a further reference.
# During the treatment with the tested compounds the antiarthritic activity has been evaluated by the following parameters: • average paw volume determined by a plethysmometer; • clinical evaluation of the hip functionality by an arbitrary score from 0 (absence of inflammation) to 3 (serious inflammation, which affects both the hip articulation and the animal paw).
# On the 18th day the rats were sacrificed and the diameters of the femoral articulations of the animal hind legs were determined after skin removal; and an histological analysis of the articulations was carried out.
# In table 5 there are reported: • the articulation sizes expressed in mm, • the percent reduction of the articulation size calculated with respect to the control rat group treated only with the collagen suspension, • the paw average volume, expressed in ml, daily determined, • the score evaluation of the hip functionality.
# [4] = type: in vivo, Sprague Dawley rats; details: 5 mg/Kg/die i.p. for 3 weeks
# Description: […]. The controls have been treated with the carrier (peanut oil 0.5 ml/rat/die i.p. for 3). At the end of the treatment the average arterial pressure (MABP) and the heart-beat have been controlled in the rats. […]. treated group 348±18, n=9).
# [5] = system: gastric damage caused by ischaemia-reperfusion; experiment: Gastric damage caused by ischaemia-reperfusion in rats; details: 28 :moles/kg by os 2 hours before the ischaemia; control 3 ± 1
# [6] = system: bronchoconstriction caused by histamine; experiment: Bronchoconstriction caused by histamine in guinea pigs (sGaw, whole body plethysmography); type: in vivo
# Description: Male guinea pigs weighing between 250 and 300 g for several days before the beginning of the experiment have been accustomed to the restrained and whole-body plethysmograph. Histamine (3 mM dissolved in saline solution 0.9%) has been administered by intranasal route for 20 seconds 24 hours before and 15 minutes after the administration of the tested compounds. NO-Budesonide (635: g/ml) and Budesonide (448: g/ml) dissolved in a mixture (v/v) DMSO 20%, ethanol 10%, saline physiological solution 70%, or the carrier, have been administered to the animals as aerosols, in a sealed room, using a wright nebulizer operating by compressed air at a pressure of 21.38×10^3 Pa (20 p.s.i.) and a flow of 0.5 ml/min. The administration lasted 15 minutes.
# To monitor the functionality of the animal airways the “whole body” plethysmography has been used. The animals were watchful and functionality has been determined as specific conductance of the airways (sGaw), expressed in % change of the basal value in the instant immediately after the exposure. To this purpose the animals were provided with a suitable mask and then transferred in a sealed room. The respiratory flow has been determined by a pneumotachograph and a pressure transducer.
# primary rat osteoclastes [7] = experiment: Osteoclastic activity in vitro (reabsorption areas on calcium phosphate plaques); details: 1 nM, 18 hours at 37° C.; control 100
# [8] = t0 = 24 hours before the inhalation of the tested compound
# [9] = t1 = 15 minutes after the inhalation of the tested compound, aerosol for 15 minutes, equimolar doses (635 / 448 :g/ml)
smiles,measurement,setting,value
"C[C@]12C=CC(=O)C=C1CCC1C2[C@@H](O)C[C@@]2(C)C1CC[C@]2(O)C(=O)COC(=O)c1ccc(CO[N+](=O)[O-])cc1 (stereo partly drawn) [Predn-Ar—ONO2, Prednisolone 21-(4′-nitrooxymethyl)benzoate]",% Reabsorbed Area with Respect to Control Area,primary rat osteoclastes [1],90%
same,Bound 3H Dexamethasone,glucocorticoid receptor; tested compound 1 μM,0 fmol/mL
same,Motor Behaviour Evaluation (BBB score),"[2]; 3rd day after trauma, 0 = does not walk, 20 = normal, control 4",8
same,Motor Behaviour Evaluation (BBB score),"[2]; 5th day after trauma, control 6",14
same,Motor Behaviour Evaluation (BBB score),"[2]; 7th day after trauma, control 8",17
same,Hind Legs Articulations Sizes,[3],5.7 mm
same,histological analysis of the articulations,[3],"both the synovial inflammation and the infiltration of inflammatory cells in cartilages were minimal, without compromising the cartilages"
same,Leg Average Volume,[3],1.1 mL
same,Hip Functionality Evaluation (Score),[3],0.1 Score
same,Hind Legs Articulations Reduction %,[3],18.6%
same,heart-beat,[4]; control 330±32,348±18
same,average arterial pressure (MABP),[4]; controls 110±4,128±7
same,Lesion Index (LI),[5],7 ± 2.1
"C[C@@H]1CC2C3CCC4=CC(=O)C=C[C@]4(C)[C@@]3(F)[C@@H](O)C[C@]2(C)[C@@]1(O)C(=O)COC(=O)c1ccc(CO[N+](=O)[O-])cc1 (stereo partly drawn) [Dex-Ar—ONO2, Dexamethasone 21-(4′-nitrooxymethyl)benzoate]",Bound 3H Dexamethasone,glucocorticoid receptor; tested compound 0.1 μM,1.1 fmol/mL
"C[C@]12CCC(=O)C=C1CCC1C2[C@@H](O)C[C@@]2(C)C1CC[C@]2(O)C(=O)COC(=O)c1ccc(CO[N+](=O)[O-])cc1 (stereo partly drawn) [Hydr-Ar—ONO2, Hydrocortisone 21-(4′-nitrooxymethyl)benzoate]",Bound 3H Dexamethasone,glucocorticoid receptor; tested compound 0.3 :M,17.3 fmol/mL
same,Bound 3H Dexamethasone,glucocorticoid receptor; tested compound 10 :M,0 fmol/mL
"CCCC1O[C@@H]2C[C@H]3[C@@H]4CCC5=CC(=O)C=C[C@]5(C)[C@H]4[C@@H](O)C[C@]3(C)[C@]2(C(=O)CO)O1 (stereo partly drawn) [Budesonide, reference compound]","specific conductance of the airways (sGaw), % change of the basal value after histamine",[6]; [8],−28.7 ± 8.8%
same,"specific conductance of the airways (sGaw), % change of the basal value after histamine",[6]; [9],−42.6 ± 15.9%
"C[C@]12C=CC(=O)C=C1CC[C@@H]1[C@@H]2[C@@H](O)C[C@@]2(C)[C@H]1CC[C@]2(O)C(=O)COC(=O)CN1CCN(CCCO[N+](=O)[O-])CC1.O=C(O)C(F)(F)F.O=C(O)C(F)(F)F [Predn-pyper-C3—ONO2, Prednisolone-21-[2-[4-(3-nitrooxypropyl)piperazin-1-yl]acetate]bis-trifluoromethanacetate]",Bound 3H Dexamethasone,glucocorticoid receptor; tested compound 1 μM,2.4 fmol/mL
"C[C@]12CCC(=O)C=C1CC[C@@H]1[C@@H]2[C@@H](O)C[C@@]2(C)[C@H]1CC[C@]2(O)C(=O)COC(=O)CCCO[N+](=O)[O-] [Hydr-C4—ONO2, Hydrocortisone-21-(4-nitrooxybutyrate), reference compound]",Bound 3H Dexamethasone,glucocorticoid receptor; tested compound 0.3 :M,25.6 fmol/mL
same,Bound 3H Dexamethasone,glucocorticoid receptor; tested compound 10 :M,4.3 fmol/mL
"C[C@]12C=CC(=O)C=C1CC[C@@H]1[C@@H]2[C@@H](O)C[C@@]2(C)[C@H]1CC[C@]2(O)C(=O)COC(=O)CCCO[N+](=O)[O-] [Predn-C4—ONO2, Prednisolone 21-(4-nitrooxy)butyrate, reference compound]",Bound 3H Dexamethasone,glucocorticoid receptor; tested compound 1 μM,9.9 fmol/mL
"CCCC1O[C@@H]2CC3C4CCC5=CC(=O)C=C[C@]5(C)C4[C@@H](O)C[C@]3(C)[C@]2(C(=O)COC(=O)c2ccc(CO[N+](=O)[O-])cc2)O1 (stereo partly drawn) [Budesonide-NO, Budesonide 21-(4′-nitrooxymethyl)benzoate]",inhibition of the bronchoconstriction caused by histamine,"[6]; aerosol, equimolar doses",100%
same,"specific conductance of the airways (sGaw), % change of the basal value after histamine",[6]; [8],−29.7 ± 9.8%
same,"specific conductance of the airways (sGaw), % change of the basal value after histamine",[6]; [9],+1.4 ± 7.9%
"C[C@]12C=CC(=O)C=C1CC[C@@H]1[C@@H]2[C@@H](O)C[C@@]2(C)[C@H]1CC[C@]2(O)C(=O)CO [Prednisolone, reference compound]",Hind Legs Articulations Sizes,[3],6.1 mm
same,histological analysis of the articulations,[3],cartilage ulcerations and synovial inflammation were present
same,Leg Average Volume,[3],1.26 mL
same,Hip Functionality Evaluation (Score),[3],0.6 Score
same,Hind Legs Articulations Reduction %,[3],12.7%
same,Lesion Index (LI),[5],44 ± 2.5
same,% Reabsorbed Area with Respect to Control Area,primary rat osteoclastes [7],148%
"C[C@]12C=CC(=O)C=C1CC[C@@H]1[C@@H]2[C@@H](O)C[C@@]2(C)[C@H]1CC[C@]2(O)C(=O)COC(=O)CN1CCN(CCCO[N+](=O)[O-])CC1.Cl.Cl [Predn-pyper-ONO2, Prednisolone-21-[2-[4-(3-nitrooxypropyl)piperazin-1-yl]acetate]bishydrochloride]",Bound 3H Dexamethasone,glucocorticoid receptor; tested compound 1 μM,5.5 fmol/mL
